{
  "source": "patent US20050107451A1",
  "about": "“Methods for treating conditions, disorders, or diseases involving cell death” (priority 2001, published 2005)",
  "system": "neurons in brain slices",
  "format": "cell-based",
  "settings": "for NON-STROKE AVERAGE / surviving neurons, NON-STROKE: non-stroke brain slice; for NON-STROKE AVERAGE / STROKE AVG. / surviving neurons, NON-STROKE / surviving neurons, STROKE: 24 hrs exposure; for NON-STROKE AVERAGE / STROKE AVG.: average neuron count; for STROKE AVG. / surviving neurons, STROKE: stroke brain slice; for surviving neurons, NON-STROKE / surviving neurons, STROKE: single count; for neuroprotective properties: stroke and non-stroke brain slices, result in words",
  "from_the_text": "A negative and positive control experiments were also run for comparison. In the positive control, a known neuroprotective gene and reporter gene (i.e., a green fluorescent protein) were shot into the stroke and non-stroke brain slices. In the negative control, only the reporter gene (i.e., a green fluorescent protein) was shot into the stroke and non-stroke brain slices. […]\nA negative and positive control experiments were also run for comparison as described above for Example 1. […]\nTwo sets of brain slices were transfected with a plasmid containing a reporter gene (e.g. a green fluorescent protein). […] One of the sets of brain slices was treated under conditions to simulate stroke, and the other brain slice was a non-stroke control. Survival of neurons in the brain slices, as indicated by expression of the reporter molecule, was examined by direct neuron counts after 24 hrs. exposure to the compound.",
  "note": "Values joined by “and” are separate entries in the source; they are usually repeats but may differ in a detail not shown here. Equal entries are not always repeated. Where two headings read alike, the source gives them in different places.",
  "data": [
    {"molecule": "COC1C(O)[C@H](O[C@H]2CC[C@]3(C)C4CC[C@]5(C)C(C6=CC(=O)OC6)CC[C@]5(O)C4CC[C@@H]3C2)OC(C)[C@@H]1O", "note": "(stereo partly drawn) [Neriifolin, (3β,5β)-3-[(6-Deoxy-3-O-methyl-α-L-glucopyranosyl)oxyl]-14-hydroxycard-20(22)-enolide]", "values": [
      {"measurement": "NON-STROKE AVERAGE", "setting": "0.781 uM", "result": 35},
      {"measurement": "STROKE AVG.", "setting": "0.781 uM", "result": 6.4},
      {"measurement": "NON-STROKE AVERAGE", "setting": "1.562 uM", "result": 30.4},
      {"measurement": "STROKE AVG.", "setting": "1.562 uM", "result": 10},
      {"measurement": "NON-STROKE AVERAGE", "setting": "3.125 uM", "result": 48.2},
      {"measurement": "STROKE AVG.", "setting": "3.125 uM", "result": 5.8},
      {"measurement": "NON-STROKE AVERAGE", "setting": "6.25 uM", "result": 61},
      {"measurement": "STROKE AVG.", "setting": "6.25 uM", "result": 19.8},
      {"measurement": "NON-STROKE AVERAGE", "setting": "12.5 uM", "result": 29.75},
      {"measurement": "STROKE AVG.", "setting": "12.5 uM", "result": 36.25},
      {"measurement": "NON-STROKE AVERAGE", "setting": "25 uM", "result": 60.2},
      {"measurement": "surviving neurons, NON-STROKE", "setting": "25 uM", "result": "49 neurons and 66 neurons and 82 neurons and 42 neurons and 62 neurons"},
      {"measurement": "STROKE AVG.", "setting": "25 uM", "result": 43.4},
      {"measurement": "NON-STROKE AVERAGE", "setting": "50 uM", "result": 32.2},
      {"measurement": "STROKE AVG.", "setting": "50 uM", "result": 17.6},
      {"measurement": "NON-STROKE AVERAGE", "setting": "100 uM", "result": 15.6},
      {"measurement": "STROKE AVG.", "setting": "100 uM", "result": 10.6},
      {"measurement": "neuroprotective properties", "result": "exhibits neuroprotective properties"}
    ]},
    {"molecule": "NC(C(=O)O)c1nnn[nH]1", "note": "(racemic) [(RS)-(Tetrazol-5-yl)glycine]", "values": [
      {"measurement": "NON-STROKE AVERAGE", "setting": "0.781 uM", "result": 25.6},
      {"measurement": "STROKE AVG.", "setting": "0.781 uM", "result": 13.2},
      {"measurement": "NON-STROKE AVERAGE", "setting": "1.562 uM", "result": 28.8},
      {"measurement": "STROKE AVG.", "setting": "1.562 uM", "result": 17.2},
      {"measurement": "NON-STROKE AVERAGE", "setting": "3.125 uM", "result": 50.4},
      {"measurement": "STROKE AVG.", "setting": "3.125 uM", "result": 28.2},
      {"measurement": "NON-STROKE AVERAGE", "setting": "6.25 uM", "result": 94.8},
      {"measurement": "STROKE AVG.", "setting": "6.25 uM", "result": 58.8},
      {"measurement": "NON-STROKE AVERAGE", "setting": "12.5 uM", "result": 65.2},
      {"measurement": "surviving neurons, NON-STROKE", "setting": "12.5 uM", "result": "71 neurons and 61 neurons and 75 neurons and 56 neurons and 63 neurons"},
      {"measurement": "STROKE AVG.", "setting": "12.5 uM", "result": 56.6},
      {"measurement": "NON-STROKE AVERAGE", "setting": "25 uM", "result": 78},
      {"measurement": "STROKE AVG.", "setting": "25 uM", "result": 53.2},
      {"measurement": "NON-STROKE AVERAGE", "setting": "50 uM", "result": 68.8},
      {"measurement": "STROKE AVG.", "setting": "50 uM", "result": 89},
      {"measurement": "NON-STROKE AVERAGE", "setting": "100 uM", "result": 73.6},
      {"measurement": "surviving neurons, NON-STROKE", "setting": "100 uM", "result": "72 neurons and 87 neurons and 64 neurons and 62 neurons and 83 neurons"},
      {"measurement": "STROKE AVG.", "setting": "100 uM", "result": 79.6},
      {"measurement": "surviving neurons, STROKE", "setting": "100 uM", "result": "95 neurons and 76 neurons and 87 neurons and 66 neurons and 74 neurons"},
      {"measurement": "neuroprotective properties", "result": "exhibits neuroprotective properties"}
    ]},
    {"molecule": "CC=C(C)C(=O)OC1CCC2(C)C3CCC4[C@]5(O)CC(O)[C@@]6(O)C(CN7CC(C)CCC7[C@@]6(C)O)[C@]5(O)C[C@@]42O[C@]13O", "note": "(stereo partly drawn) [Cevadine, (Z)-4α,9-Epoxycevane-3β,4,12,14,16β,17,20-heptol 3-(2-methyl-2-butenoate)]", "values": [
      {"measurement": "NON-STROKE AVERAGE", "setting": "0.781 uM", "result": 26.25},
      {"measurement": "STROKE AVG.", "setting": "0.781 uM", "result": 9.5},
      {"measurement": "NON-STROKE AVERAGE", "setting": "1.562 uM", "result": 33.2},
      {"measurement": "STROKE AVG.", "setting": "1.562 uM", "result": 9},
      {"measurement": "NON-STROKE AVERAGE", "setting": "3.125 uM", "result": 25.6},
      {"measurement": "STROKE AVG.", "setting": "3.125 uM", "result": 6.4},
      {"measurement": "surviving neurons, STROKE", "setting": "3.125 uM", "result": "9 neurons and 5 neurons and 6 neurons and 7 neurons"},
      {"measurement": "NON-STROKE AVERAGE", "setting": "6.25 uM", "result": 27},
      {"measurement": "STROKE AVG.", "setting": "6.25 uM", "result": 8.6},
      {"measurement": "NON-STROKE AVERAGE", "setting": "12.5 uM", "result": 64},
      {"measurement": "STROKE AVG.", "setting": "12.5 uM", "result": 38.5},
      {"measurement": "NON-STROKE AVERAGE", "setting": "25 uM", "result": 93.6},
      {"measurement": "STROKE AVG.", "setting": "25 uM", "result": 126},
      {"measurement": "NON-STROKE AVERAGE", "setting": "50 uM", "result": 118},
      {"measurement": "STROKE AVG.", "setting": "50 uM", "result": 86.6},
      {"measurement": "NON-STROKE AVERAGE", "setting": "100 uM", "result": 73},
      {"measurement": "STROKE AVG.", "setting": "100 uM", "result": 70},
      {"measurement": "surviving neurons, STROKE", "setting": "100 uM", "result": "53 neurons and 78 neurons and 77 neurons and 56 neurons and 86 neurons"},
      {"measurement": "neuroprotective properties", "result": "exhibits neuroprotective properties"}
    ]},
    {"molecule": "O=C1O[C@H]([C@@H](O)CO)C([O-])=C1O.[Na+]", "note": "[Sodium Ascorbate, Sodium ascorbate, reference compound]", "values": [
      {"measurement": "NON-STROKE AVERAGE", "setting": "0.3125 uM", "result": 9.5},
      {"measurement": "STROKE AVG.", "setting": "0.3125 uM", "result": 2.5},
      {"measurement": "NON-STROKE AVERAGE", "setting": "0.625 uM", "result": 12.5},
      {"measurement": "STROKE AVG.", "setting": "0.625 uM", "result": 0.5},
      {"measurement": "NON-STROKE AVERAGE", "setting": "1.25 uM", "result": 10.5},
      {"measurement": "STROKE AVG.", "setting": "1.25 uM", "result": 0.5},
      {"measurement": "NON-STROKE AVERAGE", "setting": "2.5 uM", "result": 8},
      {"measurement": "STROKE AVG.", "setting": "2.5 uM", "result": 0.5},
      {"measurement": "NON-STROKE AVERAGE", "setting": "5 uM", "result": 19.5},
      {"measurement": "STROKE AVG.", "setting": "5 uM", "result": 1},
      {"measurement": "NON-STROKE AVERAGE", "setting": "10 uM", "result": 15.5},
      {"measurement": "STROKE AVG.", "setting": "10 uM", "result": 2},
      {"measurement": "NON-STROKE AVERAGE", "setting": "25 uM", "result": 12.5},
      {"measurement": "STROKE AVG.", "setting": "25 uM", "result": 0.5},
      {"measurement": "NON-STROKE AVERAGE", "setting": "50 uM", "result": 10},
      {"measurement": "STROKE AVG.", "setting": "50 uM", "result": 2},
      {"measurement": "NON-STROKE AVERAGE", "setting": "100 uM", "result": 2.5},
      {"measurement": "neuroprotective properties", "result": "did not exhibit neuroprotective properties"}
    ]}
  ]
}
